SMILES strings stand for the structures.

One test concerns the target PHD1 (EGLN2) (Homo sapiens (Human), UniProt Q96KS0). In words: HIF-PH assay (14CO2 capture), PHD1 enzyme inhibition. Format: biochemical. As to conditions: Table 1; for IC50: individual measurement, read-out: IC50 (μM) PHD1; for PHD2/PHD1: ratio of the IC50 of the compound for each enzyme.
Another test concerns the target PHD2 (EGLN1) (Homo sapiens (Human), UniProt Q9GZT9). In words: HIF-PH assay (14CO2 capture), PHD2 enzyme inhibition. It counts as biochemical. As to conditions: Table 1; individual measurement; read-out: IC50 (μM) PHD2.

Sequence of PHD2 (EGLN1) (Q9GZT9 whole entry): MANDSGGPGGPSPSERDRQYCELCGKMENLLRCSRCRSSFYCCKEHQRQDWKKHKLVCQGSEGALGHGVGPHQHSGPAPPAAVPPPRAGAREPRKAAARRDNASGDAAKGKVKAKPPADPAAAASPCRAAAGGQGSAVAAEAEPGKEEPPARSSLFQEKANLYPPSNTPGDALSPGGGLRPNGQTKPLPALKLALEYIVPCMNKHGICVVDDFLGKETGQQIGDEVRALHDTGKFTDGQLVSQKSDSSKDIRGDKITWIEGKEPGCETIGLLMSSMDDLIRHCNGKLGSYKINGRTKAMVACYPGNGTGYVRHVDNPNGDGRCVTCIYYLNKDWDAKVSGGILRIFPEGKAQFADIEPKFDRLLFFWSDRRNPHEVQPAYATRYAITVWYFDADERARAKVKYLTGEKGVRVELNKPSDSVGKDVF
Sequence of PHD1 (EGLN2) (Q96KS0 whole entry): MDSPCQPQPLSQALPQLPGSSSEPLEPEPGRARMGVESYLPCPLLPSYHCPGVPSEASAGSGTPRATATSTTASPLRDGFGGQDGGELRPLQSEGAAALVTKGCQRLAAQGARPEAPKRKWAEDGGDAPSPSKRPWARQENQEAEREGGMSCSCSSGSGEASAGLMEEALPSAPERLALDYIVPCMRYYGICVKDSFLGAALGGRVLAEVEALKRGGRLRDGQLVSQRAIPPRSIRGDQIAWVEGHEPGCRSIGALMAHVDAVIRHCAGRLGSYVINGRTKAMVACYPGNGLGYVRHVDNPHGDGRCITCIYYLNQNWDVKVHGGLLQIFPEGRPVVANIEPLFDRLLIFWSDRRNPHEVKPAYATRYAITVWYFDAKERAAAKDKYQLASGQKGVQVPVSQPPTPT

The IC50 is the midpoint of a concentration-inhibition curve. On to `N#Cc1nc(C(=O)NCC(C(=O)O)C2CC2)c(O)c2ccc(Oc3c(F)cccc3F)cc12` (stereo not drawn) [Compound 180, 3{-[1-Cyano-7-(2,6-difluoro-phenoxy)-4-hydroxy-isoquinoline-3-carbonyl]-amino}-2-cyclopropyl-propionic acid], for which, on PHD1 (EGLN2), the IC50 was found to be 4.57 µM and the PHD2/PHD1 worked out at 6. In addition, the half-inhibitory concentration (IC50) on PHD2 (EGLN1) was 28.9 µM.

Regarding `N#Cc1nc(C(=O)NCC(C(=O)O)c2ccc(F)cc2)c(O)c2ccc(Oc3ccccc3)cc12` (stereo not drawn) [Compound 181, 3-[(1-Cyano-4-hydroxy-7-phenoxy-isoquinoline-3-carbonyl)-amino]-2-(4-fluoro-phenyl)-propionic acid], on PHD1 (EGLN2), the IC50 is 1.45 µM and the PHD2/PHD1 worked out at 7. For the same compound, the half-maximal inhibitory concentration (IC50) at PHD2 (EGLN1) was found to be 9.45 µM.

For the compound `N#Cc1nc(C(=O)NCC(C(=O)O)c2ccccc2F)c(O)c2ccc(Oc3ccccc3)cc12` (stereo not drawn) [Compound 182, 3-[(1-Cyano-4-hydroxy-7-phenoxy-isoquinoline-3-carbonyl)-amino]-2-(2-fluoro-phenyl)-propionic acid], on PHD1 (EGLN2), the 50% inhibitory concentration (IC50) was found to be 1.81 µM and the PHD2/PHD1 was 7. The half-inhibitory concentration (IC50) at PHD2 (EGLN1) was found to be 11.9 µM.

On to `CC(C)CC(CNC(=O)c1nc(C#N)c2cc(Oc3ccccc3)ccc2c1O)CC(=O)O` (stereo not drawn) [Compound 183, 3-{[(1-Cyano-4-hydroxy-7-phenoxy-isoquinoline-3-carbonyl)-amino]-methyl}-5-methyl-hexanoic acid], for which, at PHD1 (EGLN2), the IC50 stood at 1.63 µM and the PHD2/PHD1 is on record as 8. The IC50 on PHD2 (EGLN1) was determined as 12.6 µM.

Consider `CC(CCC(=O)O)NC(=O)c1nc(C#N)c2cc(Oc3ccccc3)ccc2c1O` (stereo not drawn) [Compound 184, 4-[(1-Cyano-4-hydroxy-7-phenoxy-isoquinoline-3-carbonyl)-amino]-pentanoic acid], for which the figures for the half-inhibitory concentration (IC50) at PHD1 (EGLN2) and at PHD2 (EGLN1) were 1.38 µM and 12.6 µM, respectively. In addition, the PHD2/PHD1 on PHD1 (EGLN2) is reported as 9.
